What all share (type): functional
Assay [1] has as its system Mus musculus. Description: Antiinflammatory activity against Swiss mouse assessed as inhibition of TPA-induced edema at 0.5 mg/ear applied simultaneously with TPA measured after 4 hrs.
In assay [2] the test system is Mus musculus. Put plainly: Antiinflammatory activity against Swiss mouse assessed as inhibition of arachidonic acid-induced edema at 0.5 mg/ear applied 30 mins before arachidonic acid challenge measured after 1 hr.
Assay [3] concerns Mus musculus. Description: Antiinflammatory activity against Swiss mouse chronic dermatitis model assessed as inhibition of TPA-induced edema at 0.5 mg/ear applied twice daily for 4 days measured after 6 hrs.
The species entered for assay [4] is Mus musculus. Put plainly: Antiinflammatory activity against Swiss mouse chronic dermatitis model assessed as inhibition of TPA-induced tissue myeloperoxidase activity at 0.5 mg/ear applied twice daily for 4 days measured after 6 hrs.
In assay [5] the test system is Mus musculus. Put plainly: Antiinflammatory activity against Swiss mouse assessed as inhibition of carrageenan-induced paw volume at 100 mg/kg, po administered 1 hr prior to carrageenan challenge measured after 3 hrs.
Assay [6] has as its system Mus musculus. Put plainly: Antiinflammatory activity against Swiss mouse assessed as inhibition of carrageenan-induced paw volume at 100 mg/kg, po administered 1 hr prior to carrageenan challenge measured after 1 hr. (In general: In the carrageenan paw model, swelling and tenderness develop within hours.)
For assay [7], the system named is Mus musculus. Put plainly: Antiinflammatory activity against Swiss mouse assessed as inhibition of carrageenan-induced paw volume at 100 mg/kg, po administered 1 hr prior to carrageenan challenge measured after 5 hrs.

`COc1cc(O)c2c(c1)O[C@H](c1ccc(O)cc1)[C@@H](O)C2=O`: the “inhibition (INH)” value in the assay on Mus musculus [1] came out at 78%; with Mus musculus [2] it was 3%.
On to `COc1cc(O)c2c(c1)O[C@H](c1ccc(O)c(O)c1)[C@@H](OC(C)=O)C2=O`, for which the entries for the “inhibition (INH)” value in the assay with Mus musculus [1] and in the assay with Mus musculus [2] were 83% and -1%, respectively.
With `C[C@@H]1C[C@H]2[C@@H]3CCC4=CC(=O)C=C[C@]4(C)[C@@]3(F)[C@@H](O)C[C@]2(C)[C@@]1(O)C(=O)CO` [DEXAMETHASONE], the “inhibition (INH)” value in the assay on Mus musculus [3] and in the assay listed under Mus musculus [4] was 92% throughout.
`C=C(C(=O)O)[C@@H]1CC[C@@]2(C)CCC[C@@](C)(O)[C@@H]2C1` [ILICIC ACID]: the “inhibition (INH)” value in the assay with Mus musculus [3] was 78%; with Mus musculus [1], 72%; with Mus musculus [2] it was 18%; in the assay listed under Mus musculus [4] it was 82%. The inhibition in vivo at 100 mg/kg with Mus musculus [5] is 32%; in the assay with Mus musculus [6] it was 5%; in the assay on Mus musculus [7], 30%.
With `COc1ccc2c(c1)c(CC(=O)O)c(C)n2C(=O)c1ccc(Cl)cc1` [INDOMETHACIN], the “inhibition (INH)” value with Mus musculus [1] worked out at 91%.
On to `CC/C=C\C/C=C\C/C=C\CCCCCCCC(=O)OC(COC(=O)CCCCCCCCCCCCCCC)CO[C@H]1O[C@@H](CO[C@H]2O[C@H](CO)[C@H](O)[C@H](O)[C@H]2O)[C@@H](O)[C@@H](O)[C@@H]1O` (some centres undefined) [INUGALACTOLIPID A], for which the “inhibition (INH)” value in the assay with Mus musculus [3] was found to be 97%; in the assay with Mus musculus [1], 48%; in the assay on Mus musculus [2], 5%; in the assay listed under Mus musculus [4], 84%. Further, the figures for the inhibition in vivo at 100 mg/kg with Mus musculus [5], in the assay with Mus musculus [6] and in the assay on Mus musculus [7] were 10%, -16% and 5%, respectively.
For `C=C1C(=O)O[C@H]2CC(=C)[C@H]3CC[C@@](C)(O)[C@@H]3C[C@H]12` [INUVISCOLIDE], the “inhibition (INH)” value in the assay on Mus musculus [1] is 90%; in the assay with Mus musculus [2], -16%.
As for `O=C1CCN(c2ccccc2)N1` [PHENIDONE], the “inhibition (INH)” value in the assay on Mus musculus [2] is 51%.
With `CCCCC1C(=O)N(c2ccccc2)N(c2ccccc2)C1=O` [PHENYLBUTAZONE], the figures for the inhibition in vivo at 100 mg/kg with Mus musculus [5], in the assay with Mus musculus [6] and with Mus musculus [7] were 58%, 54% and 43%, respectively.
As for `COc1cc(O)c2c(=O)c(O)c(-c3ccc(O)cc3)oc2c1` [RHAMNOCITRIN], the “inhibition (INH)” value in the assay on Mus musculus [1] stood at 78%; with Mus musculus [2] it was 6%.

Broadly, the inhibition in vivo is the change of the read-out against control, counted positive when it falls.

Source of the values: ChEMBL document CHEMBL1141827, “A glycosyl analogue of diacylglycerol and other antiinflammatory constituents from Inula viscosa” (1999).
